# From ChEMBL document CHEMBL4507320, “Data for DCP probe NVS-MALT1” (2021)
# The source made the active and inactive calls. No cut-off for these calls is given here.
# Tests used:
# [1] = molecular target: T1, Mucosa-associated lymphoid tissue lymphoma translocation protein 1 (Homo sapiens, UniProt Q9UDY8); assay: Human biochemical (TR-FRET) assay (low salt)
# T1 sequence (Q9UDY8 whole entry): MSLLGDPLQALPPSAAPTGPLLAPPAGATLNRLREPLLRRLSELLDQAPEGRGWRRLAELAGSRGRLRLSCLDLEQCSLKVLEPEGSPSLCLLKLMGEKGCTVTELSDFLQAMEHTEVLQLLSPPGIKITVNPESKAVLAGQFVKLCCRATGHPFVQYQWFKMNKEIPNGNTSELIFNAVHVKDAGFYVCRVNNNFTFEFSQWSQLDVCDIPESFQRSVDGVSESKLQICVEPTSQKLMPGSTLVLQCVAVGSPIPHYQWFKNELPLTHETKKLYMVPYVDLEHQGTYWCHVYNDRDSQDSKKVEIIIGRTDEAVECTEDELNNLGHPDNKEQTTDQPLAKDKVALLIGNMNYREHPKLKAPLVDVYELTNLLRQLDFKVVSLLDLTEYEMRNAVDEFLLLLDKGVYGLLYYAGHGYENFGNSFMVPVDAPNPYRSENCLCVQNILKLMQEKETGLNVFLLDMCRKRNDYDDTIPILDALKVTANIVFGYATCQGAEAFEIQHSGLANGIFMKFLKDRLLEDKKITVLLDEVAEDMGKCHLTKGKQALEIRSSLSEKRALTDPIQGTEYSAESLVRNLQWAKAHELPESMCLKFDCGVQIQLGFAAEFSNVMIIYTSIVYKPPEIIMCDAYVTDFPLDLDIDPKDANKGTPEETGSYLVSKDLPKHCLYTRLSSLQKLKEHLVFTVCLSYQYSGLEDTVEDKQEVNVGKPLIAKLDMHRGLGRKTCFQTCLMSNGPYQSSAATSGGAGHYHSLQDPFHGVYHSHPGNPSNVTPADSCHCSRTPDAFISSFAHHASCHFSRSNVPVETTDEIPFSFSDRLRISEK
# [2] = molecular target: T1, Mucosa-associated lymphoid tissue lymphoma translocation protein 1; assay: IL-2 – PMA + anti-CD28 + 50% Human whole blood; assay type: tissue-based
# [3] = molecular target: T1, Mucosa-associated lymphoid tissue lymphoma translocation protein 1; assay: IL-2 – PMA + anti-CD28 + 50% Rat whole blood; assay type: tissue-based; settings: target entry is the homologue from another species
# [4] = molecular target: Receptor-type tyrosine-protein kinase FLT3 (Homo sapiens, UniProt P36888); assay: Kinase panel; design: compound concentration 10 uM
# [5] = molecular target: Cathepsin B (Homo sapiens) (UniProt P07858); assay: Cathepsin B (h) Protease assay; settings: Compound concentration 10.0 uM
# [6] = molecular target: Cathepsin D (Homo sapiens) (UniProt P07339); assay: Cathepsin D (h) Protease assay; settings: Compound concentration 10.0 uM
# [7] = molecular target: Cathepsin G (Homo sapiens) (UniProt P08311); assay: Cathepsin G (h) Protease assay; settings: Compound concentration 10.0 uM
# [8] = molecular target: Cathepsin K (Homo sapiens) (UniProt P43235); assay: Cathepsin K (h) Protease assay; settings: Compound concentration 10.0 uM
# [9] = molecular target: Procathepsin L (Homo sapiens) (UniProt P07711); assay: Cathepsin L (h) Protease assay; settings: Compound concentration 10.0 uM
# [10] = molecular target: Cathepsin S (Homo sapiens) (UniProt P25774); assay: Cathepsin S (h) Protease assay; settings: Compound concentration 10.0 uM
# Caspase-3 (Homo sapiens) = Caspase-3 (Homo sapiens) (UniProt P42574); assay: Caspase 3 (h) Protease assay; settings: Compound concentration 10.0 uM
# Chymase (Homo sapiens) = Chymase (Homo sapiens) (UniProt P23946); assay: Chymase (h) Protease assay; settings: Compound concentration 10.0 uM
# [11] = molecular target: Neutrophil elastase (Homo sapiens) (UniProt P08246); assay: Neutrophil elastase 2 (h) Protease assay; settings: Compound concentration 10.0 uM
# [12] = molecular target: Coagulation factor VII (Homo sapiens) (UniProt P08709); assay: Factor VIIa (h) Protease assay; settings: Compound concentration 10.0 uM
# [13] = molecular target: Coagulation factor X (Homo sapiens) (UniProt P00742); assay: Factor Xa (h) Protease assay; settings: Compound concentration 10.0 uM
# [14] = molecular target: Neutrophil collagenase (Homo sapiens) (UniProt P22894); assay: MMP-8 (h) Protease assay; settings: Compound concentration 10.0 uM
# [15] = molecular target: Prothrombin (Homo sapiens) (UniProt P00734); assay: Thrombin (h) Protease assay; settings: Compound concentration 10.0 uM
# Trypsin (Homo sapiens) = Trypsin (Homo sapiens) (UniProt P07477+P07478+P35030); assay: Trypsin (h) Protease assay; assay type: protein assay; settings: Compound concentration 10.0 uM
# [16] = molecular target: Plasma kallikrein (Homo sapiens) (UniProt P03952); assay: Plasma Kallikrein Protease assay; settings: Compound concentration 10.0 uM
# [17] = molecular target: Histamine H3 receptor (Homo sapiens) (UniProt Q9Y5N1); settings: Compound concentration 10.0 uM
# [18] = molecular target: Beta-1 adrenergic receptor (Homo sapiens) (UniProt P08588); settings: Compound concentration 10.0 uM
# [19] = molecular target: Beta-2 adrenergic receptor (Homo sapiens) (UniProt P07550); settings: Compound concentration 10.0 uM
# [20] = molecular target: 5-hydroxytryptamine receptor 7 (Homo sapiens, UniProt P34969); assay: GPCRScan assay: inhibition of 5-HT7A; design: radioligand conc. used [nm] 5.0 – 6.0, parental cells Stable HEK
# [21] = molecular target: Sigma intracellular receptor 2 (Homo sapiens, UniProt Q5BJF2); assay: GPCRScan assay: inhibition of Sigma 2; design: radioligand conc. used [nm] 5.0, parental cells HEKT
# [22] = molecular target: Sigma non-opioid intracellular receptor 1 (Homo sapiens, UniProt Q99720); assay: GPCRScan assay: inhibition of Sigma 1; design: radioligand conc. used [nm] 4.0 – 5.0, parental cells HEKT
# [23] = molecular target: Muscarinic acetylcholine receptor M1 (Homo sapiens) (UniProt P11229); settings: Compound concentration 10.0 uM
# Sequence of Caspase-3 (Homo sapiens) (P42574 29-175 limits assumed): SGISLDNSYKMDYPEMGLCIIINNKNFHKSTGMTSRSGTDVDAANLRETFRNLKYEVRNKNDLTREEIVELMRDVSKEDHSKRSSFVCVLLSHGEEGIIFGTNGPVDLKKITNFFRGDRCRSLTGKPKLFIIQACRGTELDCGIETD
# Sequence of Caspase-3 (Homo sapiens) (P42574 176-277 limits assumed): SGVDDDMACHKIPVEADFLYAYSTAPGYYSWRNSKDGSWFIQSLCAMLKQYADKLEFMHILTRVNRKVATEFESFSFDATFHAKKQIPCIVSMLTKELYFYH
# Sequence of Beta-2 adrenergic receptor (Homo sapiens) (P07550 whole entry, looked up): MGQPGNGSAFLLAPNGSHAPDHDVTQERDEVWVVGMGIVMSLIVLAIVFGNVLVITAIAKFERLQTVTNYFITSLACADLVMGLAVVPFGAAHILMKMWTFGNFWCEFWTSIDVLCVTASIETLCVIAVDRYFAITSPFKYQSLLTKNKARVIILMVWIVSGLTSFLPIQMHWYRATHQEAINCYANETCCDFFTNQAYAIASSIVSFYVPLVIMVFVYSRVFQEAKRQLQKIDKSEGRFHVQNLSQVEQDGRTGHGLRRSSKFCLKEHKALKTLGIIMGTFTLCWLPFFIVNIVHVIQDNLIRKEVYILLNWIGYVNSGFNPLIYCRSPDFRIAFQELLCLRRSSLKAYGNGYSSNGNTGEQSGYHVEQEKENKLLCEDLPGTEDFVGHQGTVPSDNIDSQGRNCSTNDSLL
# Sequence of Sigma non-opioid intracellular receptor 1 (Q99720 whole entry): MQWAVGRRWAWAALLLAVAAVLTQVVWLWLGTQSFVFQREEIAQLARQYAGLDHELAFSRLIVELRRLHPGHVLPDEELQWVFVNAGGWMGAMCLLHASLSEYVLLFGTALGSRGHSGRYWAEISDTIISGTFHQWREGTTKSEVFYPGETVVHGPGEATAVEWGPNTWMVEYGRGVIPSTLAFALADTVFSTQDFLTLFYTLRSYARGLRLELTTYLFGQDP
# Sequence of Cathepsin D (Homo sapiens) (P07339 65-162 limits assumed): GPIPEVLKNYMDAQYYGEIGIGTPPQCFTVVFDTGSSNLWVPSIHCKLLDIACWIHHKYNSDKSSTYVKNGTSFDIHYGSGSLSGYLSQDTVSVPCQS
# Sequence of Cathepsin D (Homo sapiens) (P07339 169-412 limits assumed): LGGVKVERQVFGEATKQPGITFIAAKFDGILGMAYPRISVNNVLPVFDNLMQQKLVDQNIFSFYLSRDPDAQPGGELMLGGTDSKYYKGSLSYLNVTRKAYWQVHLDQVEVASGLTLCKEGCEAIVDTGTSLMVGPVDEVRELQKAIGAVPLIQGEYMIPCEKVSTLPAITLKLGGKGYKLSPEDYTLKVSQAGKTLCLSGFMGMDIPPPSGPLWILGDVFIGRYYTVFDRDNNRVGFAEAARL
# Sequence of Neutrophil elastase (Homo sapiens) (P08246 whole entry): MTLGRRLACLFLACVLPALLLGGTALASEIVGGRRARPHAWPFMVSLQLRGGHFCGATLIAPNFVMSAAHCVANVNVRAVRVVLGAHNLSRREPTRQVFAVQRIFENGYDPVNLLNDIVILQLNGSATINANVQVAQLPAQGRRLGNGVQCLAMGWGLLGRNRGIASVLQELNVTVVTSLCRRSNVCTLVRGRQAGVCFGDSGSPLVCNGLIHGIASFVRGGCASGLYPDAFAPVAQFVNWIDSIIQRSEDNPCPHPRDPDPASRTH
# Sequence of Chymase (Homo sapiens) (P23946 whole entry): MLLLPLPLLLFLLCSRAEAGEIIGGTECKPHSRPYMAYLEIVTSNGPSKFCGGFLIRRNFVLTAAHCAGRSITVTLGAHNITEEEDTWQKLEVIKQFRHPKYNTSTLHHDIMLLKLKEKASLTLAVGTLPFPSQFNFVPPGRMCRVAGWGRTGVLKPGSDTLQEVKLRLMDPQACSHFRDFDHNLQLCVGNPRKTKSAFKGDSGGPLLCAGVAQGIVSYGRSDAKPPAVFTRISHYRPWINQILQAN
# Sequence of Cathepsin G (Homo sapiens) (P08311 whole entry): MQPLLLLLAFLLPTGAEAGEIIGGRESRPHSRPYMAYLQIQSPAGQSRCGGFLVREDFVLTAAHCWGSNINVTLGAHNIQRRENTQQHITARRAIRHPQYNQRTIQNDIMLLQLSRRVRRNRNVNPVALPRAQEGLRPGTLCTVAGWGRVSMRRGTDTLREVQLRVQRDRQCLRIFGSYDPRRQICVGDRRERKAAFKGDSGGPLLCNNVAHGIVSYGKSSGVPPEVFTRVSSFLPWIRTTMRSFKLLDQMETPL
# Sequence of Receptor-type tyrosine-protein kinase FLT3 (P36888 whole entry): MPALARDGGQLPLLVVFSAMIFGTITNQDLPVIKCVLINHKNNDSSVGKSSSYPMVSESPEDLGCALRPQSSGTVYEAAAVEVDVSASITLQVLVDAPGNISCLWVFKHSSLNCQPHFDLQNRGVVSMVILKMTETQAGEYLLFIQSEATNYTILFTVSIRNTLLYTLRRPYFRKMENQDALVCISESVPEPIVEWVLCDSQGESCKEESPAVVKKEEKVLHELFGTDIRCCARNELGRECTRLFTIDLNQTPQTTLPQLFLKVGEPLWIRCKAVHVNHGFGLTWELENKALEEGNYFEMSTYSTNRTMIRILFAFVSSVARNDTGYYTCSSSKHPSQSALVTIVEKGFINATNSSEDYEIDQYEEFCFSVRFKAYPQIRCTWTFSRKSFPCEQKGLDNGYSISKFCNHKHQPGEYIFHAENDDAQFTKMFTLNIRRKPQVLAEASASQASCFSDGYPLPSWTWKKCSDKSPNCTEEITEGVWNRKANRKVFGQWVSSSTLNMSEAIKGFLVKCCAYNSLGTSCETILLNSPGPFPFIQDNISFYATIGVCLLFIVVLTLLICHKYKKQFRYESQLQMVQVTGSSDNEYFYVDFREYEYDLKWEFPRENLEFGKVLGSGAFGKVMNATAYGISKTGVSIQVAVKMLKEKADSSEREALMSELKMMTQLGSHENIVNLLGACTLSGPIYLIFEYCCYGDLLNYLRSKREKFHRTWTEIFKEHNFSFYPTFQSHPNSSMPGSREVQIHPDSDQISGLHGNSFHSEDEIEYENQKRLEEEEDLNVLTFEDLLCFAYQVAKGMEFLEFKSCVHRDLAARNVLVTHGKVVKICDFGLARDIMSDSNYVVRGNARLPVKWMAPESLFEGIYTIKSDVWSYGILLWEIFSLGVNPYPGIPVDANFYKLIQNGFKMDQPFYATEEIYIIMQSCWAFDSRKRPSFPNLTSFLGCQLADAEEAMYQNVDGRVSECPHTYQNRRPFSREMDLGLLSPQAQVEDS
# Sequence of Neutrophil collagenase (Homo sapiens) (P22894 101-467 limits assumed): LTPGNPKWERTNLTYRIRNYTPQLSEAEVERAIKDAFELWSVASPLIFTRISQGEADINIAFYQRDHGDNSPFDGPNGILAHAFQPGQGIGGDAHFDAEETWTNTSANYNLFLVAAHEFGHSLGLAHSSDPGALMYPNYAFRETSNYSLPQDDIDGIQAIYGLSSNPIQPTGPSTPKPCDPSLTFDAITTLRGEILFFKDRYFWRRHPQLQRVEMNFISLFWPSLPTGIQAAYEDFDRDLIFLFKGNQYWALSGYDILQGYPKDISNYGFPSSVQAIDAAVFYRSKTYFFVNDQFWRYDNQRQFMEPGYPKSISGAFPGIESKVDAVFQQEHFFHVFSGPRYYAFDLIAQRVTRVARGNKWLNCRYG
# Sequence of Sigma intracellular receptor 2 (Q5BJF2 whole entry): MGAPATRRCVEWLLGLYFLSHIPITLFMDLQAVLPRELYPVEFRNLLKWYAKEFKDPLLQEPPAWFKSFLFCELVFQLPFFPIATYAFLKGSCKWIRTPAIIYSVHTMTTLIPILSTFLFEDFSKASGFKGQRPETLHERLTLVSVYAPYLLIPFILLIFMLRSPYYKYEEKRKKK
# Sequence of Coagulation factor X (Homo sapiens) (P00742 41-179 limits assumed): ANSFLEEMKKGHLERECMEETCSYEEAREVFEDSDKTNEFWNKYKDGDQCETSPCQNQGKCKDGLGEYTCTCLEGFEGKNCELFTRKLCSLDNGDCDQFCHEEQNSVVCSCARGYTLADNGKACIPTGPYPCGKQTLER
# Sequence of Coagulation factor X (Homo sapiens) (P00742 235-488 limits assumed): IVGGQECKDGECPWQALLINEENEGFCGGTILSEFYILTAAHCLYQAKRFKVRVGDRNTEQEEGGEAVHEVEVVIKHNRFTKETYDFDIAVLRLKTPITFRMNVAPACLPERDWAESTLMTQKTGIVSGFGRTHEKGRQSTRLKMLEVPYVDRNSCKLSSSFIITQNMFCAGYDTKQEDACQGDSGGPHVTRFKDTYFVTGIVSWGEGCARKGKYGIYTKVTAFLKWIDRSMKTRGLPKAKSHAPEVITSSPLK
# Sequence of Cathepsin K (Homo sapiens) (P43235 whole entry): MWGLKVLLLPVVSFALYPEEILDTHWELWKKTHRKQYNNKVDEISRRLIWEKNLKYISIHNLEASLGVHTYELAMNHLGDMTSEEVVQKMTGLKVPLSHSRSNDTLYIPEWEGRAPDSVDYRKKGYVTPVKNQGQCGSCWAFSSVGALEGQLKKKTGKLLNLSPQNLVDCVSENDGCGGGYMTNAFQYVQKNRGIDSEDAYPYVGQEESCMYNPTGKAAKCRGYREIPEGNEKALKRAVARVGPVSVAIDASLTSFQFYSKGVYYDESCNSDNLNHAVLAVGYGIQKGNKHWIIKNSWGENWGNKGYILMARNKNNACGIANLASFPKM
# Sequence of Histamine H3 receptor (Homo sapiens) (Q9Y5N1 whole entry): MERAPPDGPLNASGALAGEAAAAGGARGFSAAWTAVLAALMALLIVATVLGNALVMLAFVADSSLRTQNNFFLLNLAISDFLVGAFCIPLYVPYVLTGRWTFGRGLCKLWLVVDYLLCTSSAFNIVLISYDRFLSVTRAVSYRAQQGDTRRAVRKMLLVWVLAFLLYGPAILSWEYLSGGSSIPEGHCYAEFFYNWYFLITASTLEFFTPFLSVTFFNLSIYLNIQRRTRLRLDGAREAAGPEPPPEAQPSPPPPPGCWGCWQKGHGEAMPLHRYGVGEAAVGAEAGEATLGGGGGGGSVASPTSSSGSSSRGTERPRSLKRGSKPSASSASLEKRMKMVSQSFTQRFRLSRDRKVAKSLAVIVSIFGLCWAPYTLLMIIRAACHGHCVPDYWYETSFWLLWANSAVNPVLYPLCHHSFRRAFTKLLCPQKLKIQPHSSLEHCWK
smiles,measurement,setting,value
CO[C@@H](C)c1c(Nc2ccc([C@H](N(C)C(=O)C3CCS(=O)(=O)CC3)C(F)(F)F)cc2)cnc2cc(Cl)nn12 [NVS-MALT1],IC50,[1],18 nM (active)
same,IC50,[2],200 nM (active)
same,IC50,[3],130 nM (active)
same,IC50,[4],3500 nM (active)
same,inhibition,[5],-4%
same,inhibition,[6],0%
same,inhibition,[7],7%
same,inhibition,[8],2%
same,inhibition,[9],-3%
same,inhibition,[10],7%
same,inhibition,Caspase-3 (Homo sapiens),-1%
same,inhibition,Chymase (Homo sapiens),-3%
same,inhibition,[11],-1%
same,inhibition,[12],-1%
same,inhibition,[13],-9%
same,inhibition,[14],0%
same,inhibition,[15],0%
same,inhibition,Trypsin (Homo sapiens),0.8%
same,inhibition,[16],5%
same,inhibition,[17],-5.74%
same,inhibition,[18],20.6%
same,inhibition,[19],26.7%
CO[C@@H](C)c1c(Nc2ccc([C@@H](N(C)C(=O)C3CCS(=O)(=O)CC3)C(F)(F)F)cc2)cnc2cc(Cl)nn12 [NVS-MALT1-C],Ki,[20],10000 nM
same,Ki,[21],890 nM
same,Ki,[22],1590 nM
same,inhibition,[23],-2.39%
